# Tests used:
# DENV1 (16007) = assay: Antiviral efficacy (EC50) in virus infected LLC/MK2 cells, plaque assay; type: cell-based, Dengue virus
# Description: (§1) Compound at various concentrations were added to virus infected LLC/MK2 cells and viral titers were accessed by plaque titration of supernatants as previously described.
# (§2) LLC/MK2 cells were seeded at 5 × 10^4 cells into each well of 24-well plate and incubated overnight at 37 °C under 5% CO2. Cells were infected with DENV2 at the multiplicity of infection (M.O.I.) of 0.1, unless indicated otherwise, for 1 h with gentle rocking every 15 min. Cells were washed with phosphate buffer saline (PBS) and incubated with 1 ml of MEM medium supplemented with 1% FBS as previously described. The compounds were prepared in dimethylsulfoxide (DMSO) at the indicated concentrations before addition to viral infected cells. Supernatants were collected after 5 day incubation and analyzed by plaque titration[9].
# (§3) Compounds were prepared in DMSO at 8–12 different concentrations and added to virus infected cells as previously described. Supernatants were collected and the EC50 values were calculated from nonlinear regression analysis.
# [1] = test system: DENV2 infected C6/36 cells; assay: Fusion inhibition study in DENV2 infected C6/36 cells; type: cell-based, Dengue virus; conditions: 10 and 25 µM; M.O.I. of 0.02; in words
# Description: We further explored whether the compound would block the viral infectivity by neutralization. We set up the attachment inhibition assay by incubating DENV2 with LLC/MK2 cells at 4 °C for 1 h and FV13 was added before adsorption (pre-attachment), simultaneous with adsorption (co-attachment), and after adsorption (post-attachment) (Fig. 5A). DMSO was used as a mock treatment and added in parallel to FV13 to the experiment. Cells were incubated until cytopathic effects appeared under microscope (Fig. 5B). Supernatants and cells were then analyzed by plaque titration (Fig. 5C) and RT-qPCR (Fig. 5D), respectively. […] Therefore, the major targets of FV13 inhibition appear to function after attachment, possibly at the fusion or translation steps. […] (Supplementary 1). Therefore, fusion was unlikely the major target of FV13. We concluded that one of the major targets of FV13 functions early after infection and attachment and fusion are not critically affected. Flavivirus translation initiates within 1 to 5 hpi[26].
# The assay protocol was adapted from Ichiyama et al., 2013 and Poh et al., 20091,2. C6/36 cells were seeded at 2x10^5 cells per well in 24-well plate and incubated overnight. Cells were infected with DENV2 (M.O.I. of 0.02) at 28 °C for 1 h with gentle rocking every 15 min. […] The cells were closely monitored under microscope. […]
# ZIKV (SV0010/15) = assay: Antiviral efficacy (EC50) in virus infected LLC/MK2 cells, plaque assay; type: cell-based, Zika virus
# Description: as §1, §2, §3
# DENV2 = assay: Time-of-drug addition study (TOA) in DENV2 infected LLC/MK2 cells; type: cell-based, Dengue virus; conditions: 10 μM; for decrease of DENV2 plaque titer from DMSO-treated baseline: supernatants
# Description: To access the stage of the viral life cycle affected by FV13, we performed a time-of-addition assay. Briefly, FV13 (10 μM) was added to DENV2 infected LLC/MK2 cells at various time points as described in Methods section. DMSO was added in parallel as a control treatment. Supernatants were collected for plaque titration and cell lysates were collected for RT-qPCR analysis. […] If the drug was added at 12 hpi or later, only 1-log decrease was observed (Fig. 4A,B). […] The first molecular target could interact with FV13 earlier than 2 hpi and its effect was still visible until 8–10 hpi. The other target could locate at late post-replication steps such as assembly, maturation, or release because a 1-log discrepancy between plaque and RT-qPCR titers indicated genome replication was unaffected. Further investigations will reveal insights into the actual target of this compound.
# After supernatant collection, the remaining cells in experimental plates were extracted for viral RNAs using TRIzol reagent (Invitrogen, California, USA) according to the manufacturer’s protocol. The samples were loaded into the Direct-zol™ RNA MiniPrep (Zymo research, California, USA) and quantified by Nanodrop spectrophotometry (Eppendorf, New York, USA). The RT-qPCR was performed with a Step-OnePlus Real-Time PCR System (Applied Biosystems, California, USA.) with 1 × Power SYBRGreen PCR Master Mix, 400 nM each of capsid primers[40] or 250 nM of NS1 primers[41] and 0.1 µg of total RNA. The reactions were then cycled at 48 °C 30 min and 95 °C 10 min, followed by 45 cycles of 95 °C for 20 s (denaturation), 55 °C for 30 s (annealing), 72 °C for 30 s (extension). Each sample was analyzed in triplicated and results were confirmed by two independent experiments.
# LLC/MK2 cells were seeded in 24-well plate and incubated as previously described. Cells were then infected with DENV2 (M.O.I. of 0.1). FV13 (10 µM) was added at various time points, early time points (−1, 0, 2, 4, 6, 8, 10, and 12 hpi) and late time points (12, 14, 16, 20, and 24 hpi) and the plates were incubated for 5 days. Supernatants were collected to determine the viral titer by plaque titration assay and the cells were collected to determine viral RNA content by RT-qPCR. Results were confirmed by three independent experiments in which each time point was tested in duplicate.
# [2] = Cytotoxicity study (CellTiter 96 AQueous One) in HepG2 cells; type: cell-based; conditions: human, HepG2 cells, read-out: Cells viability (%, means ± SEM) HepG2
# Description: The cytotoxicity of active compounds was tested on LLC-MK2, Vero, THP-1, HEK-293, HepG2 and C6/36 cell lines. Each cell line was seeded at 1 × 10^4 cells per well in 96-well plates and incubated overnight. The compounds were added at the indicated concentrations and the cells were incubated for 48 h, unless indicated otherwise. Cell viability was analyzed using CellTiter 96® AQueous One Solution Cell Proliferation Assay kit (Promega, Wisconsin-Madison, USA) according to manufacturer’s protocol. The plate was read at the A 450 in a VICTORTM × 3 microplate reader (PerkinElmer, Massachusetts, USA). Percent cell viability in compound-treated wells was calculated using reference DMSO-treated cells as a 100% cell viability control. The CC50 values of LLC/MK2 cells were calculated using nonlinear regression analysis. Results were reported as means and standard error of the means (SEM) of CC50 values of three independent experiments in which each drug concentration was tested in triplicate.
structure (smiles),measurement,setting,value
"O=c1cc(-c2ccccc2)oc2c(Br)c(O)c(Br)c(O)c12 [FV13, 6,8-dibromo-5,7-dihydroxyflavone]",S.I. Selectivity index (CC50/EC50),"DENV1 (16007); DENV1 (16007), CC50 in LLC/MK2",19.42
same,EC50,"DENV1 (16007); Dengue virus, DENV1, LLC-MK2",2.3 ± 1.04 µM
same,fusion inhibition (number of fused cells or syncytial phenomenon),[1],no difference in the number of fused cells or syncytial phenomenon
same,S.I. Selectivity index (CC50/EC50),ZIKV (SV0010/15); CC50 in LLC/MK2,27.02
same,EC50,"ZIKV (SV0010/15); Zika virus, LLC/MK2, plaque assay in 24-well plates",1.65 ± 0.86 µM
same,decrease of DENV2 plaque titer from DMSO-treated baseline,DENV2; drug added at 12 hpi or later,1 log
same,decrease of DENV2 plaque titer from DMSO-treated baseline,DENV2; drug added between 2–10 hpi,2 log
same,intracellular viral RNA versus DMSO-treated samples,"DENV2; drug addition at 12–24 hpi, RT-qPCR, in words",no titer difference
same,decrease of intracellular viral RNA,"DENV2; drug addition between 2–8 hpi, RT-qPCR",1 log
same,"viability at 48 h, 10 µM",[2]; 10 μM,85.8 ± 4.7%
same,"viability at 48 h, 25 µM",[2]; 25 μM,84.6 ± 2.79%
